Assay results as given in ChEMBL document CHEMBL1201862, “PubChem BioAssay data set” (2004).
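Growth conditions: 96-well plates. Treatment: test compound, 48 hours, 5 concentrations. Analysis: linear interpolation between bracketing concentrations; unreached endpoints set to highest concentration. GI50 marks 50% less growth.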 Calls of active or inactive are those of the source. Cut-off read from the data, not from the text of the source: active = GI50 up to about 1.1 µM and inactive = higher.

Experiments:
Test in all cases: NCI-60 cell line screen, 48 h
[1] = test system: DLD-1
[2] = test system: DMS-114
[3] = test system: DMS-273
[4] = test system: HOP-18
[5] = test system: KM-20L2
[6] = test system: LXFL 529
[7] = test system: M19-MEL
[8] = test system: RXF 631
[9] = test system: XF498

Row | Structure (SMILES) | GI50 [1] | GI50 [2] | GI50 [3] | GI50 [4] | GI50 [5] | GI50 [6] | GI50 [7] | GI50 [8] | GI50 [9]
1 | CNC(=O)OCc1nc(SSC(C)(C)C)n(C)c1COC(=O)NC | 1.43 µM (inactive) | 1.72 µM (inactive) | 5.97 µM (inactive) | 5.18 µM (inactive) | 12.8 µM (inactive) | 1.24 µM (inactive) | 3.32 µM (inactive) | 1.73 µM (inactive) | 2.32 µM (inactive)
2 | CC(C)(C)C1CCC2c3c([nH]c4ccccc34)C3C(=O)N(c4ccc(Br)cc4)C(=O)C3C2C1 (configuration not stated) | 41.4 µM (inactive) | 19 µM (inactive) | 17.1 µM (inactive) | 52.4 µM (inactive) | 15.1 µM (inactive) | 21.7 µM (inactive) | 16.8 µM (inactive) | – | 38.4 µM (inactive)
3 | CC(C)=CC(=O)Oc1ccc([N+](=O)[O-])cc1 | > 100 µM (inactive) | > 100 µM (inactive) | > 100 µM (inactive) | > 100 µM (inactive) | > 100 µM (inactive) | > 100 µM (inactive) | > 100 µM (inactive) | – | > 100 µM (inactive)
4 | C#CCN(N=O)C(=O)NCCCCC(NC(=O)OCc1ccccc1)C(=O)OCc1ccccc1 (configuration not stated) | 29 µM (inactive) | – | 84.3 µM (inactive) | > 100 µM (inactive) | > 100 µM (inactive) | 19.1 µM (inactive) | 23.3 µM (inactive) | – | 29.9 µM (inactive)
5 | Cc1cc(NS(=O)(=O)c2ccc(NC(=O)c3cccc4c(N)c5ccccc5nc34)cc2)no1 | 30.6 µM (inactive) | 22.2 µM (inactive) | 19.2 µM (inactive) | – | 34.1 µM (inactive) | 32 µM (inactive) | 21.2 µM (inactive) | 18.4 µM (inactive) | 21.8 µM (inactive)
6 | CC1OC(n2cc(Cl)c(=O)[nH]c2=O)C=C(OC(=O)c2ccccc2)C1=O (configuration not stated) | > 100 µM (inactive) | > 100 µM (inactive) | > 100 µM (inactive) | > 100 µM (inactive) | > 100 µM (inactive) | – | > 100 µM (inactive) | > 100 µM (inactive) | > 100 µM (inactive)
7 | O=C1CCCc2ccc([N+](=O)[O-])c(O)c21 | > 100 µM (inactive) | 66.1 µM (inactive) | > 100 µM (inactive) | – | > 100 µM (inactive) | > 100 µM (inactive) | > 100 µM (inactive) | – | –
8 | Sc1nnc(/C=C/c2ccc(Cl)c(Cl)c2)[nH]1 | > 100 µM (inactive) | 0.0298 µM (active) | > 100 µM (inactive) | – | > 100 µM (inactive) | – | – | – | 30.9 µM (inactive)
9 | N#C/C(=C/c1ccc([N+](=O)[O-])o1)c1ccccc1 | > 100 µM (inactive) | > 100 µM (inactive) | > 100 µM (inactive) | > 100 µM (inactive) | > 100 µM (inactive) | > 100 µM (inactive) | > 100 µM (inactive) | – | –
10 | Cc1noc2cccc(O)c12 | > 100 µM (inactive) | > 100 µM (inactive) | > 100 µM (inactive) | > 100 µM (inactive) | > 100 µM (inactive) | > 100 µM (inactive) | > 100 µM (inactive) | – | > 100 µM (inactive)
11 | COc1nc(=O)cc(N)n1C1OC(CO)C(O)C1O (configuration not stated) | > 100 µM (inactive) | > 100 µM (inactive) | > 100 µM (inactive) | – | > 100 µM (inactive) | > 100 µM (inactive) | > 100 µM (inactive) | – | –
12 | COc1ccc(C=O)c(N(C)C(=O)C(C)(C)C)c1 | – | > 100 µM (inactive) | > 100 µM (inactive) | > 100 µM (inactive) | > 100 µM (inactive) | – | > 100 µM (inactive) | > 100 µM (inactive) | 17.1 µM (inactive)
13 | C=C(c1ccccc1N)[C@@]1(O)C[C@H](/C(=C\C)CO)C[C@@H]1NCc1ccccc1 | – | 17 µM (inactive) | 28.6 µM (inactive) | 20.4 µM (inactive) | 17.3 µM (inactive) | – | 23.6 µM (inactive) | – | –
14 | S=P(c1ccccc1)(c1ccccc1)C1(C2(P(=S)(c3ccccc3)c3ccccc3)CC2)CC1 | > 100 µM (inactive) | > 100 µM (inactive) | > 100 µM (inactive) | – | > 100 µM (inactive) | > 100 µM (inactive) | > 100 µM (inactive) | > 100 µM (inactive) | > 100 µM (inactive)
15 | Cc1ccccc1NC(=O)C(=O)C(C#N)c1ccc(Cl)cc1 (configuration not stated) | 41.8 µM (inactive) | 39.8 µM (inactive) | 33 µM (inactive) | 47.8 µM (inactive) | 33.6 µM (inactive) | 51.4 µM (inactive) | – | 34.7 µM (inactive) | 33.8 µM (inactive)
16 | C/C(CC(=O)Nc1cccc(C)c1C)=N\NC(N)=S | > 100 µM (inactive) | 41.7 µM (inactive) | > 100 µM (inactive) | > 100 µM (inactive) | > 100 µM (inactive) | > 100 µM (inactive) | > 100 µM (inactive) | 91.2 µM (inactive) | > 100 µM (inactive)
17 | COC(=O)/C1=C/C2CC(/C=C(/c3ccccc3)C(=O)O1)C2 | 22.8 µM (inactive) | 19 µM (inactive) | 21.5 µM (inactive) | 27.5 µM (inactive) | – | – | 23.1 µM (inactive) | – | 22 µM (inactive)
18 | c1ccc2c(c1)c1ccccc1c1n[se]nc21 | > 100 µM (inactive) | > 100 µM (inactive) | > 100 µM (inactive) | < 0.01 µM (active) | > 100 µM (inactive) | 21.8 µM (inactive) | – | 89.7 µM (inactive) | 31.5 µM (inactive)
19 | O=C(CSc1nc(-c2ccccc2)c(-c2ccccc2)[nH]1)N/N=C/c1ccc(O)cc1 | 36.7 µM (inactive) | 22.1 µM (inactive) | 18.3 µM (inactive) | 12.2 µM (inactive) | 24.5 µM (inactive) | 30.5 µM (inactive) | 19.4 µM (inactive) | – | 28.5 µM (inactive)
20 | NNC(=O)/C(=C/c1ccc(Cl)c(Cl)c1)NC(=O)c1ccccc1 | > 100 µM (inactive) | 61.8 µM (inactive) | – | – | > 100 µM (inactive) | > 100 µM (inactive) | > 100 µM (inactive) | > 100 µM (inactive) | > 100 µM (inactive)
21 | O=C(NC(c1ccccc1)C(O)C(=O)OCc1ccc2c(c1)C(=O)c1ccccc1C2=O)c1ccccc1 (configuration not stated) | 21.2 µM (inactive) | 12.6 µM (inactive) | 18.6 µM (inactive) | 3.56 µM (inactive) | > 51.2 µM (inactive) | 44.7 µM (inactive) | 53.6 µM (inactive) | 30.5 µM (inactive) | 16 µM (inactive)
22 | NC1=C2C(Br)=CN([C@@H]3O[C@H](CO)[C@@H](O)[C@@H]3O)C2C(=O)N=N1 (some centres not stated) | 0.76 µM (active) | 4.94 µM (inactive) | 1.97 µM (inactive) | 5.68 µM (inactive) | 22.2 µM (inactive) | 8.47 µM (inactive) | 15.5 µM (inactive) | 0.516 µM (active) | –
23 | CO[C@H]1C[C@](C)(O)Cc2cc3c(c(O)c21)C(=O)c1c(O)cc2c(c1C3=O)O[C@@H]1O[C@@]2(C)[C@H](O)[C@@H](N(C)C)[C@@H]1O | 2.81 µM (inactive) | 0.456 µM (active) | 0.215 µM (active) | 0.859 µM (active) | 2.89 µM (inactive) | 1.96 µM (inactive) | 1.11 µM (active) | 0.902 µM (active) | 0.147 µM (active)
